This experiment can be described thus: T1 measurements / MR imaging of PA gels at 9.4 T. Format: physicochemical. Conditions: gel of 0.75 wt. % filler PA 1, agent mixed in at 0.1 mM Gd(III) (1 alone without Gd(III)), spin-echo. Here is the method: FIG. 4 depicts results of T1 study of PA gels and mixed PA gels. The concentration of Gd(III) is 0.1 mM in all samples except a and the concentration of filler PA is […] in each case (all samples form self-supporting gels): a corresponds to compound 1 alone and is used as a standard, b refers to 1 mixed with DTPA, c refers to 1 mixed with compound 2, d refers to 1 mixed with compound 3, e through j are mixed with compound 3 and their structures are depicted above. Error bars represent one standard deviation.
Mixing PACAs 2 or 3 with filler PA 1 could be successfully imaged by MR (FIG. 3). The gels are homogeneous in image intensity throughout the samples, which implies uniform mixing of the PACA molecules within the filler PA at MR resolution. If heterogeneous mixing of PAs occur on a large enough scale, domains of bright and dark intensity would be observed. […] The gels were made using a 0.75 wt. % of filler PA. The PACA molecule was mixed into this solution before gelling as was the DTPA. Images were acquired using a spin-echo pulse sequence with TR 750 ms, TC 12 ms, slice thickness of 1 mm, FOV of 2 cm, at 9.4 T on an Oxford superconducting magnet and Bruker software. The T1 of these gels were measured at 3.03±0.05 s, 1.89±0.06 s, 1.08±0.06 s, and 2.81±0.05 s, respectively, the faster T1's resulting in higher contrast.
T1 Measurements. […]

Consider `O=C(O)CN(CCN(CC(=O)O)CC(=O)O)CCN(CC(=O)O)CC(=O)O` [DTPA, diethylenetriaminepentaacetate], for which the T1 of gels was determined as 2.81 ± 0.05 s.

For the origin of these results see patent publication US8834840B1, “Magnetic resonance imaging of self-assembled biomaterial scaffolds” (Northwestern University, priority 2006, dated 2014).
